Measurements reported in PubChem BioAssay (NCI).
Several values for one entry are separate records, joined by “and”; a condition that tells them apart may be missing. Identical values can stand only once.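 48-hour exposure; five concentrations; linearly interpolated endpoints. Abbreviation: GI50, concentration required for 50% inhibition of growth. TGI: total growth inhibition.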

How the values were obtained:
Experiment in all cases: NCI tumour cell line growth inhibition, 48 h
[1] = test system: DLD-1 colon
[2] = test system: RXF-631 renal
[3] = test system: DMS 114 small cell lung
[4] = test system: MDA-MB-435
[5] = test system: DU-145 prostate
[6] = test system: MDA-N
[7] = test system: P388 leukemia
[8] = test system: SN12K1 renal
[9] = test system: P388/ADR leukemia
[10] = test system: MCF7 breast
[11] = test system: HS 578T breast

Work on `CCOC(=O)N[C@@H]1C(CC(=O)OC)O[C@H]2OC(C)(C)O[C@H]21` (some centres not stated) yielded a TGI [1] greater than 100 µM, a TGI [2] greater than 100 µM and a TGI [3] greater than 100 µM.
Compound `CC(=O)O[C@H]1CCC2[C@@H]3CC[C@]4(C)CC(=O)C=C[C@]4(C)C3CC[C@@]21C` (some centres not stated) has a TGI [1] of 56.9 µM, a TGI [2] greater than 100 µM and a TGI [4] of 94.7 µM. It also gave a TGI [3] of 24.2 µM, a TGI [5] greater than 100 µM and a TGI [6] of 74.7 µM.
Compound `CCCCNC1CCCCC[C@H]1O` (some centres not stated) has a TGI [1] greater than 100 µM and a TGI [3] greater than 100 µM.
`CCOC(=O)/C(C)=C(/O)C(=O)OCC` showed a TGI [1] greater than 100 µM, a TGI [2] greater than 100 µM and a TGI [3] greater than 100 µM.
`COc1cc(Cc2nccc3cc(OC)c(OC)cc23)c(C(C)=O)cc1OC` was tested, and the GI50 [1] was 118 µM, the TGI [1] was 169 µM and 351 µM and the TGI [2] was greater than 750 µM. The GI50 [3] was 3.02 µM, the TGI [3] was 300 µM and 164 µM and the TGI [7] was 119 µM. It also gave a TGI [8] of 300 µM, a TGI [9] of 30 µM and a TGI [10] of 300 µM.
Compound `c1ccc(C2N3CCCCC3[C@@H]3c4[nH]c5ccccc5c4CCN23)nc1` (some centres not stated) has a TGI [1] greater than 100 µM, a TGI [2] greater than 100 µM and a TGI [3] of 96.3 µM.
For `C=C(C)CCN[Si](c1ccccc1)(c1ccccc1)C(C)(C)C`, the TGI [2] was 41.5 µM and the TGI [3] was 51.3 µM.
In the case of `Cc1nnc(NS(=O)(=O)c2ccc(N=Nc3cc(N=Nc4ccc(S(=O)(=O)Nc5nnc(C)s5)cc4)c4c(NC(=O)C(Cl)Cl)cccc4c3OC(=O)C(Cl)Cl)cc2)s1` (tested in a mixture with another compound), the TGI [1] is reported as 42.9 µM, the TGI [2] is reported as greater than 100 µM and the TGI [3] is reported as 62.5 µM.
With `COC(=O)[C@@]12C(=O)C=CC(=O)C1C1C(=CC2C)OC2OC3(CCCCC3)OC21` (some centres not stated) the TGI [1] was 35.7 µM and the TGI [3] was 31.4 µM.
With `[N-]=[N+]=C1C(=O)NN=C1c1ccccc1` the TGI [1] was greater than 100 µM, the TGI [2] was greater than 100 µM and the TGI [3] was greater than 100 µM.
Compound `CC1=CC(C)(C)N=C2SC(c3ccc(N)cc3)=NN12` has a TGI [1] greater than 68.9 µM, a TGI [2] greater than 100 µM and a TGI [3] greater than 100 µM.
With `Cc1[nH]c(=O)nc2[nH][nH]c(=O)c12` the TGI [3] was greater than 100 µM.
In the case of `CC(=O)C1Cn2c(nc3ccccc32)C[Se]1` (configuration not stated), the TGI [1] is reported as 13 µM, the TGI [2] is reported as 7.76 µM and the TGI [3] is reported as 4.54 µM.
In the case of `CCOC(=O)CCC(=O)C1c2cccc(O)c2C(=O)c2c(O)cc(C)cc21` (configuration not stated), the TGI [1] is reported as 3.58 µM, the TGI [2] is reported as 1.65 µM and the TGI [3] is reported as 0.8 µM.
Compound `CCOC(=O)C(=O)Nc1ccccc1CC` has a TGI [1] greater than 100 µM, a TGI [2] greater than 100 µM and a TGI [3] greater than 100 µM.
`O=C(CCc1nc(=S)[nH][nH]1)Nc1ccccc1Cl` showed a TGI [1] greater than 100 µM and a TGI [3] greater than 100 µM.
`Nc1ccccc1/C(O)=C1/CCOC1=O` gave a TGI [1] greater than 100 µM and a TGI [3] greater than 100 µM.
With `CN(C)CCC1(C2=CCCC2)CC/C(=C\c2ccc(Cl)cc2)C1=O` (configuration not stated) the TGI [1] was 20.6 µM, the TGI [2] was 25.4 µM and the TGI [3] was 21.8 µM.
Compound `COc1ccc(C2=C(Cl)c3cc(OC)c(OC)cc3C2Cl)cc1` (configuration not stated) has a TGI [11] of 76.5 µM, a TGI [4] of 28.5 µM and a TGI [3] of 31.8 µM. The TGI [5] was 45.4 µM, the TGI [6] was 22.8 µM and the TGI [10] was 22.8 µM.
`CCCC1=C(CC)C(C(=O)Nc2c(C)cccc2C)=NC(S)N1` (configuration not stated) showed a TGI [1] greater than 100 µM and a TGI [3] greater than 100 µM.
`COC(=O)C12CC3CC(CC(C(=O)O)(C3)C1)C2` showed a TGI [2] greater than 100 µM.
With `COC(=O)C(Cc1nc2ccccc2[nH]c1=O)C(NO)C(=O)Nc1c(Cl)cc([N+](=O)[O-])cc1Cl` (configuration not stated) the TGI [1] was greater than 100 µM and the TGI [3] was 54.8 µM.
Work on `CCOC(=O)C1SC(=Nc2ccc(C)c(C)c2)N=C1C` (configuration not stated) yielded a TGI [1] greater than 100 µM and a TGI [3] greater than 100 µM.
`O=C(O)CNS(=O)(=O)c1ccc(NC(=O)c2ccc([N+](=O)[O-])cc2)cc1` showed a TGI [1] greater than 100 µM and a TGI [2] greater than 100 µM.
For `CC1=[N+]([O-])c2ccccc2C(=O)C1=O`, the TGI [1] was greater than 100 µM and the TGI [3] was greater than 100 µM.
With `O=C(N/N=C/c1cc(Br)ccc1O)N/N=C/c1cc(Br)ccc1O` the TGI [1] was greater than 100 µM, the TGI [2] was greater than 100 µM and the TGI [3] was greater than 100 µM.
Compound `COC(=O)C(CC(=O)Nc1ccc(C)cc1)C(=O)C(=O)Nc1c(C(C)C)cccc1C(C)C` (configuration not stated) has a TGI [1] greater than 100 µM, a TGI [2] greater than 100 µM and a TGI [3] greater than 100 µM.
`COc1cc(/C=C/c2ccc(OC)c(O)c2)cc(OC)c1` gave a TGI [1] of 24.7 µM and a TGI [3] of 17.9 µM.
With `c1cnn(CN(Cn2cccn2)Cn2cccn2)c1` the TGI [1] was greater than 100 µM and the TGI [3] was greater than 100 µM.
`CCCCCCCCCCCCCCCC(=O)OCC(C[As](=O)(O)O)OC(=O)CCCCCCCCCCCCCCC` (configuration not stated) gave a TGI [11] greater than 100 µM, a TGI [1] greater than 100 µM and a TGI [2] greater than 100 µM. For the same compound, the TGI [4] was greater than 100 µM, the TGI [3] was greater than 100 µM and the TGI [6] was greater than 100 µM. The TGI [10] was greater than 100 µM.
`Cn1cc(C2(C)CC(C)(C)c3c2n(C)c2ccccc32)c2ccccc21` (configuration not stated) gave a TGI [1] greater than 100 µM and a TGI [3] greater than 100 µM.
`O=C1C2C3C=C4c5ccccc5N(c5ccccc5)C4(C2C(=O)N1c1ccc([N+](=O)[O-])cc1)[C@H]1C(=O)N(c2ccc([N+](=O)[O-])cc2)C(=O)[C@@H]31` (some centres not stated) was tested, and the TGI [1] was greater than 100 µM and the TGI [3] was greater than 100 µM.
Work on `CNC(=S)/N=C(\N)N(C)C` yielded a TGI [1] greater than 100 µM and a TGI [3] greater than 100 µM.
`Clc1cc(Cl)c2ns[s+]c2c1Cl` gave a TGI [1] greater than 100 µM.
With `O=C(c1cccc2ccccc12)N1CCC(C2CCN(C(=O)c3cccc4ccccc34)CC2)CC1` the TGI [1] was greater than 100 µM, the TGI [2] was greater than 100 µM and the TGI [3] was greater than 100 µM.
For `COc1ccc(CN2CC(C)(C)C2=O)c(OC)c1`, the TGI [2] was greater than 100 µM and the TGI [3] was greater than 100 µM.
